Source: ChEMBL document CHEMBL4725249, “Quinazoline Based HSP90 Inhibitors: Synthesis, Modeling Study and ADME Calculations Towards Breast Cancer Targeting” (Bioorg Med Chem Lett, 2020)

system: HeLa; assay: Antiproliferative activity against human HeLa cells assessed as reduction in cell viability after 48 hrs by MTT assay; type: functional, cell-based; details: not given

SMILES | IC50 [µM]
O=c1c2ccccc2nc(SCCCSC(=S)N2CCN(C3CCCCC3)CC2)n1-c1ccccc1 | 64.5
CC(=O)N1CCN(C(=O)CSc2nc3ccccc3c(=O)n2-c2ccccc2)CC1 | 12
O=c1c2ccccc2nc(SCCCSC(=S)N2CCCCC2)n1-c1ccccc1 | 50.3
O=C(CSc1nc2ccccc2c(=O)n1-c1ccccc1)N1CCN(C2CCCCC2)CC1 | 53.6
C=CCN1CCN(C(=S)SCCCSc2nc3ccccc3c(=O)n2-c2ccccc2)CC1 | 28.7
O=c1c2ccccc2nc(SCCCSC(=S)N2CCN(c3ncccn3)CC2)n1-c1ccccc1 | 74.4
CCN1CCN(C(=O)CSc2nc3ccccc3c(=O)n2-c2ccccc2)CC1 | 37.5
CCOc1ccccc1N1CCN(C(=S)SCCCSc2nc3ccccc3c(=O)n2-c2ccccc2)CC1 | 20.6
C=CCN1CCN(C(=O)CSc2nc3ccccc3c(=O)n2-c2ccccc2)CC1 | 13.4
O=C(CSc1nc2ccccc2c(=O)n1-c1ccccc1)N1CCCCC1 | 22.5
O=c1c2ccccc2nc(SCCCSC(=S)N2CCN(c3ccccc3)CC2)n1-c1ccccc1 | 26.1
O=C(CSc1nc2ccccc2c(=O)n1-c1ccccc1)N1CCOCC1 | 18.2
CC(C)(C)OC(=O)N1CCN(C(=O)CSc2nc3ccccc3c(=O)n2-c2ccccc2)CC1 | 34.5
O=C(CSc1nc2ccccc2c(=O)n1-c1ccccc1)N1CCN(c2ncccn2)CC1 | 76.9
CCN1CCN(C(=S)SCCCSc2nc3ccccc3c(=O)n2-c2ccccc2)CC1 | 79.6
CC(=O)N1CCN(C(=S)SCCCSc2nc3ccccc3c(=O)n2-c2ccccc2)CC1 | 54.9
CN1CCN(C(=S)SCCCSc2nc3ccccc3c(=O)n2-c2ccccc2)CC1 | 33.3
O=c1c2ccccc2nc(SCCCCl)n1-c1ccccc1 | 16.7

system: MCF7; assay: Induction of apoptosis in human MCF7 cells assessed as early apoptotic cells at 2 uM after 24 hrs by Annexin V-FITC/propidium iodide staining based flow cytometric analysis (reference value: 0.82%); type: functional; details: not given

SMILES | Activity [%]
C=CCN1CCN(C(=O)CSc2nc3ccccc3c(=O)n2-c2ccccc2)CC1 | 4.94

system: MCF7; assay: Induction of cell cycle arrest in human MCF7 cells assessed as cell accumulation at Pre-G1 phase at 2 uM after 24 hrs by PI-staining based flow cytometry (reference value: 1.64%); type: functional; details: not given

SMILES | Activity [%]
C=CCN1CCN(C(=O)CSc2nc3ccccc3c(=O)n2-c2ccccc2)CC1 | 22.42

system: HCT-116; assay: cells; details: Homo sapiens, HCT-116, 48 h
Description: Antiproliferative activity against human HCT116 cells assessed as reduction in cell viability after 48 hrs by MTT assay

SMILES | IC50 [µM]
O=c1c2ccccc2nc(SCCCSC(=S)N2CCN(C3CCCCC3)CC2)n1-c1ccccc1 | 73.8
CC(=O)N1CCN(C(=O)CSc2nc3ccccc3c(=O)n2-c2ccccc2)CC1 | 10.3
O=c1c2ccccc2nc(SCCCSC(=S)N2CCCCC2)n1-c1ccccc1 | 63.4
O=C(CSc1nc2ccccc2c(=O)n1-c1ccccc1)N1CCN(C2CCCCC2)CC1 | 60.9
C=CCN1CCN(C(=S)SCCCSc2nc3ccccc3c(=O)n2-c2ccccc2)CC1 | 32.1
O=c1c2ccccc2nc(SCCCSC(=S)N2CCN(c3ncccn3)CC2)n1-c1ccccc1 | 79.6
CCN1CCN(C(=O)CSc2nc3ccccc3c(=O)n2-c2ccccc2)CC1 | 44.3
CCOc1ccccc1N1CCN(C(=S)SCCCSc2nc3ccccc3c(=O)n2-c2ccccc2)CC1 | 18.1
C=CCN1CCN(C(=O)CSc2nc3ccccc3c(=O)n2-c2ccccc2)CC1 | 15.7
O=C(CSc1nc2ccccc2c(=O)n1-c1ccccc1)N1CCCCC1 | 25.3
O=c1c2ccccc2nc(SCCCSC(=S)N2CCN(c3ccccc3)CC2)n1-c1ccccc1 | 27.6
O=C(CSc1nc2ccccc2c(=O)n1-c1ccccc1)N1CCOCC1 | 19.8
CC(C)(C)OC(=O)N1CCN(C(=O)CSc2nc3ccccc3c(=O)n2-c2ccccc2)CC1 | 48.3
O=C(CSc1nc2ccccc2c(=O)n1-c1ccccc1)N1CCN(c2ncccn2)CC1 | 78.7
CCN1CCN(C(=S)SCCCSc2nc3ccccc3c(=O)n2-c2ccccc2)CC1 | 88
CC(=O)N1CCN(C(=S)SCCCSc2nc3ccccc3c(=O)n2-c2ccccc2)CC1 | 37
CN1CCN(C(=S)SCCCSc2nc3ccccc3c(=O)n2-c2ccccc2)CC1 | 32.8
O=c1c2ccccc2nc(SCCCCl)n1-c1ccccc1 | 23.2

system: MCF7; assay: Induction of cell cycle arrest in human MCF7 cells assessed as cell accumulation at G0/G1 phase at 2 uM after 24 hrs by PI-staining based flow cytometry (reference value: 53.72%); type: functional; details: not given

SMILES | Activity [%]
C=CCN1CCN(C(=O)CSc2nc3ccccc3c(=O)n2-c2ccccc2)CC1 | 31.59

target: Heat shock protein HSP90 (Homo sapiens, UniProt P07900+P08238); assay: Inhibition of HSP90 ATPase activity (unknown origin); type: protein assay; details: not given

SMILES | IC50 [µM]
CC(=O)N1CCN(C(=O)CSc2nc3ccccc3c(=O)n2-c2ccccc2)CC1 | 14.36
CCOc1ccccc1N1CCN(C(=S)SCCCSc2nc3ccccc3c(=O)n2-c2ccccc2)CC1 | 3.41
C=CCN1CCN(C(=O)CSc2nc3ccccc3c(=O)n2-c2ccccc2)CC1 | 1.58
O=C(CSc1nc2ccccc2c(=O)n1-c1ccccc1)N1CCOCC1 | 3.21

system: MCF7; assay: Antiproliferative activity against human MCF7 cells assessed as reduction in cell viability after 48 hrs by MTT assay; type: functional, cell-based; details: MCF7, 48 h

SMILES | IC50 [µM]
O=c1c2ccccc2nc(SCCCSC(=S)N2CCN(C3CCCCC3)CC2)n1-c1ccccc1 | 45.9
CC(=O)N1CCN(C(=O)CSc2nc3ccccc3c(=O)n2-c2ccccc2)CC1 | 7.35
O=c1c2ccccc2nc(SCCCSC(=S)N2CCCCC2)n1-c1ccccc1 | 38.5
O=C(CSc1nc2ccccc2c(=O)n1-c1ccccc1)N1CCN(C2CCCCC2)CC1 | 35.9
C=CCN1CCN(C(=S)SCCCSc2nc3ccccc3c(=O)n2-c2ccccc2)CC1 | 17.8
O=c1c2ccccc2nc(SCCCSC(=S)N2CCN(c3ncccn3)CC2)n1-c1ccccc1 | 49.3
CCN1CCN(C(=O)CSc2nc3ccccc3c(=O)n2-c2ccccc2)CC1 | 23.9
CCOc1ccccc1N1CCN(C(=S)SCCCSc2nc3ccccc3c(=O)n2-c2ccccc2)CC1 | 9.48
C=CCN1CCN(C(=O)CSc2nc3ccccc3c(=O)n2-c2ccccc2)CC1 | 8.56
O=C(CSc1nc2ccccc2c(=O)n1-c1ccccc1)N1CCCCC1 | 13.8
O=c1c2ccccc2nc(SCCCSC(=S)N2CCN(c3ccccc3)CC2)n1-c1ccccc1 | 15.5
O=C(CSc1nc2ccccc2c(=O)n1-c1ccccc1)N1CCOCC1 | 11.7
CC(C)(C)OC(=O)N1CCN(C(=O)CSc2nc3ccccc3c(=O)n2-c2ccccc2)CC1 | 25.9
O=C(CSc1nc2ccccc2c(=O)n1-c1ccccc1)N1CCN(c2ncccn2)CC1 | 47.5
CCN1CCN(C(=S)SCCCSc2nc3ccccc3c(=O)n2-c2ccccc2)CC1 | 64.3
CC(=O)N1CCN(C(=S)SCCCSc2nc3ccccc3c(=O)n2-c2ccccc2)CC1 | 22.4
CN1CCN(C(=S)SCCCSc2nc3ccccc3c(=O)n2-c2ccccc2)CC1 | 19.3
O=c1c2ccccc2nc(SCCCCl)n1-c1ccccc1 | 12.6

system: MCF7; assay: Induction of cell cycle arrest in human MCF7 cells assessed as cell aggregates at 2 uM after 24 hrs by PI-staining based flow cytometry (reference value: 2.28%); type: functional; details: not given

SMILES | Activity [%]
C=CCN1CCN(C(=O)CSc2nc3ccccc3c(=O)n2-c2ccccc2)CC1 | 2.21

system: WI-38; assay: cells; details: Homo sapiens, WI-38, 48 h
Description: Cytotoxicity against human WI-38 cells assessed as reduction in cell viability after 48 hrs by MTT assay

SMILES | IC50 [µM]
O=c1c2ccccc2nc(SCCCSC(=S)N2CCN(C3CCCCC3)CC2)n1-c1ccccc1 | > 100
CC(=O)N1CCN(C(=O)CSc2nc3ccccc3c(=O)n2-c2ccccc2)CC1 | 16
O=c1c2ccccc2nc(SCCCSC(=S)N2CCCCC2)n1-c1ccccc1 | > 100
O=C(CSc1nc2ccccc2c(=O)n1-c1ccccc1)N1CCN(C2CCCCC2)CC1 | 78.4
C=CCN1CCN(C(=S)SCCCSc2nc3ccccc3c(=O)n2-c2ccccc2)CC1 | 82.5
O=c1c2ccccc2nc(SCCCSC(=S)N2CCN(c3ncccn3)CC2)n1-c1ccccc1 | > 100
CCN1CCN(C(=O)CSc2nc3ccccc3c(=O)n2-c2ccccc2)CC1 | 82
CCOc1ccccc1N1CCN(C(=S)SCCCSc2nc3ccccc3c(=O)n2-c2ccccc2)CC1 | 33.3
C=CCN1CCN(C(=O)CSc2nc3ccccc3c(=O)n2-c2ccccc2)CC1 | 12.2
O=C(CSc1nc2ccccc2c(=O)n1-c1ccccc1)N1CCCCC1 | 65
O=c1c2ccccc2nc(SCCCSC(=S)N2CCN(c3ccccc3)CC2)n1-c1ccccc1 | 29.8
O=C(CSc1nc2ccccc2c(=O)n1-c1ccccc1)N1CCOCC1 | 16
CC(C)(C)OC(=O)N1CCN(C(=O)CSc2nc3ccccc3c(=O)n2-c2ccccc2)CC1 | 62.6
O=C(CSc1nc2ccccc2c(=O)n1-c1ccccc1)N1CCN(c2ncccn2)CC1 | 94.5
CCN1CCN(C(=S)SCCCSc2nc3ccccc3c(=O)n2-c2ccccc2)CC1 | > 100
CC(=O)N1CCN(C(=S)SCCCSc2nc3ccccc3c(=O)n2-c2ccccc2)CC1 | > 100
CN1CCN(C(=S)SCCCSc2nc3ccccc3c(=O)n2-c2ccccc2)CC1 | 70.5
O=c1c2ccccc2nc(SCCCCl)n1-c1ccccc1 | 36.7

system: MCF7; assay: Induction of cell cycle arrest in human MCF7 cells assessed as debris content at 2 uM after 24 hrs by PI-staining based flow cytometry (reference value: 2.09%); type: functional; details: not given

SMILES | Activity [%]
C=CCN1CCN(C(=O)CSc2nc3ccccc3c(=O)n2-c2ccccc2)CC1 | 2.63

system: MCF7; assay: Induction of cell cycle arrest in human MCF7 cells assessed as cell accumulation at G2/M phase at 2 uM after 24 hrs by PI-staining based flow cytometry (reference value: 10.84%); type: functional; details: not given

SMILES | Activity [%]
C=CCN1CCN(C(=O)CSc2nc3ccccc3c(=O)n2-c2ccccc2)CC1 | 38.89

system: MCF7; assay: Induction of cell cycle arrest in human MCF7 cells assessed as cell accumulation at S phase at 2 uM after 24 hrs by PI-staining based flow cytometry (reference value: 35.44%); type: functional; details: not given

SMILES | Activity [%]
C=CCN1CCN(C(=O)CSc2nc3ccccc3c(=O)n2-c2ccccc2)CC1 | 29.52

system: MCF7; assay: Induction of apoptosis in human MCF7 cells assessed as necrotic cells at 2 uM after 24 hrs by Annexin V-FITC/propidium iodide staining based flow cytometric analysis (reference value: 0.43%); type: functional; details: not given

SMILES | Activity [%]
C=CCN1CCN(C(=O)CSc2nc3ccccc3c(=O)n2-c2ccccc2)CC1 | 2.31

system: MCF7; assay: Induction of apoptosis in human MCF7 cells assessed as late apoptotic cells at 2 uM after 24 hrs by Annexin V-FITC/propidium iodide staining based flow cytometric analysis (reference value: 0.39%); type: functional; details: not given

SMILES | Activity [%]
C=CCN1CCN(C(=O)CSc2nc3ccccc3c(=O)n2-c2ccccc2)CC1 | 15.17
